PubChem BioAssay (NCI)
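Grown in 96-well plates, cells were treated for 48 hours with each compound at five concentrations. Insufficient inhibition: endpoint recorded as highest concentration tested. GI50: concentration for 50% inhibition of growth. Definition used: TGI = concentration required for complete inhibition of growth.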

test system: SK-MEL-28 melanoma; experiment: inhibition of tumour cell growth, NCI panel, 48 h

SMILES	GI50 [µM]	TGI [µM]
C=C1C(=O)O[C@H]2[C@H]1CC/C(COC(=O)c1cc3ccccc3s1)=C\CC[C@@]1(C)O[C@@H]21	1.76	3.57
Fc1ccc(-c2nn3ncccc3c2-c2ccnc(Nc3ccc4c(c3)OCCO4)n2)cc1	8.64	> 25
CC1(C)N=C(N)N=C(N)N1c1ccc(OCc2ccc(S(=O)(=O)F)c(Cl)c2)c(Cl)c1	8.61	> 100
CO[C@H]1C=C[C@@]23c4cc5c(cc4CO[C@]2(O)CN(C)[C@H]3C1)OCO5		> 100
CC(C)N1CN(C(C(=O)N[C@@H]2C(=O)N3C2SC(C)(C)C3C(=O)O)c2ccccc2)CSC1=S (stereo partly specified)		> 100
COC(=O)c1c(C)[nH]c(/C=C2\N=C(c3ccc[nH]3)C=C2OC)c1C	0.685	2.36
COc1cc2c3c(n(CCCCOC(=O)C(Cl)(Cl)Cl)c(=O)c2cc1OC)-c1cc2c(cc1C3=O)OCO2	> 100	> 100
CCOC(=O)c1c(C)nc2c(c1N)/C(=C/c1ccc(OC)cc1)C(=O)N2Cc1ccc(F)cc1	0.183	0.374
CCCCOC(=O)NC(=O)c1cn(C2CCCCC2)c(=O)[nH]c1=O		> 100
COc1cc(NS(=O)(=O)c2ccc(-c3cnc(C4CC4)o3)cc2)ccc1F	1.77	23.5
COc1ccccc1Cn1cc2c(c1-c1ccccc1)CCc1cnoc1-2	27	> 100
COc1cc2c(c(OC)c1OC)C(=O)[C@@H]1c3ccc([N+](=O)[O-])cc3C(=O)N(CCCBr)[C@H]21	33.1	> 100
O=C1OC(c2ccco2)=N/C1=C\c1cccc([N+](=O)[O-])c1		> 100
Nc1ncn(C2CC(O)C(CO)O2)c(=O)n1 (stereo unspecified)		> 324
COc1ccc(CNc2nc3cc(C(F)(F)F)ccc3nc2C)cc1OC		> 100
N#CCc1ccc(C(C#N)/C(CCCC(=O)Nc2cccc([N+](=O)[O-])c2)=N/NC(N)=S)cc1 (stereo unspecified)		> 100
COc1cc2c3c(n(C)c(=O)c2cc1OC)-c1cc2c(cc1/C3=C\CNCCCN)OCO2	2.14	39.6
O=C(/C=C\n1cnc(-c2cc(C(F)(F)F)cc(C(F)(F)F)c2)n1)NNc1cnccn1	0.0672	11
COc1ccc(-c2nnc(COc3ccc(NC(=O)Nc4ccc(Cl)c(C(F)(F)F)c4)cc3F)o2)cc1	5.27	54.6
CCN(CC)CCCC(C)Nc1cnc(C(=O)Nc2cccc3ccc(OC)nc23)cn1 (stereo unspecified)	1.74	3.13
N#C/C(=C\c1cc2ccccc2c2ccccc12)c1ccccc1		> 100
COC(=O)C12C3C4C1C1C2C3C41NC(=O)c1csc([C@@H](C[C@H](C(C)C)N(C)C(=O)[C@@H](NC(=O)[C@H]2CCCCN2C)C2CC2)OC(C)=O)n1 (stereo partly specified)		> 33.3
CS(=O)(=O)c1cc(=O)c2ccccc2s1		7.5
CSc1nc2cc(S(=O)(=O)N3CCCCC3)ccc2s1		> 100
Nc1nc(-c2cccc(Cl)c2)c(-c2ccc3ncccc3n2)s1	> 25	> 25
Cc1ccc2c(c1)CN(C(=O)CCC(=O)OCc1ccccc1)c1ccc(C)cc1CN2C(=O)CCC(=O)OCc1ccccc1		> 100
O=c1[nH]c(=O)n(C2OC(CO)C(O)C(O)C2O)cc1F (stereo unspecified)		> 100
c1cc[c]([Pb]([c]2ccccc2)[c]2ccccc2)cc1	16.5	36.6
CCCCN1CSC(=S)N(Cc2ccccc2)C1		> 100

test system: KM12 colon; experiment: inhibition of tumour cell growth, NCI panel, 48 h

SMILES	GI50 [µM]	TGI [µM]
C=C1C(=O)O[C@H]2[C@H]1CC/C(COC(=O)c1cc3ccccc3s1)=C\CC[C@@]1(C)O[C@@H]21	1.78	4.08
Fc1ccc(-c2nn3ncccc3c2-c2ccnc(Nc3ccc4c(c3)OCCO4)n2)cc1	5.32	19.8
CC1(C)N=C(N)N=C(N)N1c1ccc(OCc2ccc(S(=O)(=O)F)c(Cl)c2)c(Cl)c1	3.35	> 100
CO[C@H]1C=C[C@@]23c4cc5c(cc4CO[C@]2(O)CN(C)[C@H]3C1)OCO5		> 100
CC(C)N1CN(C(C(=O)N[C@@H]2C(=O)N3C2SC(C)(C)C3C(=O)O)c2ccccc2)CSC1=S (stereo partly specified)		> 100
COC(=O)c1c(C)[nH]c(/C=C2\N=C(c3ccc[nH]3)C=C2OC)c1C	0.0938	5.67
COc1cc2c3c(n(CCCCOC(=O)C(Cl)(Cl)Cl)c(=O)c2cc1OC)-c1cc2c(cc1C3=O)OCO2	> 100	> 100
CCOC(=O)c1c(C)nc2c(c1N)/C(=C/c1ccc(OC)cc1)C(=O)N2Cc1ccc(F)cc1	0.243	0.844
CCCCOC(=O)NC(=O)c1cn(C2CCCCC2)c(=O)[nH]c1=O		> 100
COc1cc(NS(=O)(=O)c2ccc(-c3cnc(C4CC4)o3)cc2)ccc1F	0.277	18.1
COc1ccccc1Cn1cc2c(c1-c1ccccc1)CCc1cnoc1-2	1.76	> 100
COc1cc2c(c(OC)c1OC)C(=O)[C@@H]1c3ccc([N+](=O)[O-])cc3C(=O)N(CCCBr)[C@H]21	25.7	> 100
O=C1OC(c2ccco2)=N/C1=C\c1cccc([N+](=O)[O-])c1		> 100
Nc1ncn(C2CC(O)C(CO)O2)c(=O)n1 (stereo unspecified)		> 281
COc1ccc(CNc2nc3cc(C(F)(F)F)ccc3nc2C)cc1OC		83
N#CCc1ccc(C(C#N)/C(CCCC(=O)Nc2cccc([N+](=O)[O-])c2)=N/NC(N)=S)cc1 (stereo unspecified)		> 100
COc1cc2c3c(n(C)c(=O)c2cc1OC)-c1cc2c(cc1/C3=C\CNCCCN)OCO2	0.359	3.93
O=C(/C=C\n1cnc(-c2cc(C(F)(F)F)cc(C(F)(F)F)c2)n1)NNc1cnccn1	0.492	17
COc1ccc(-c2nnc(COc3ccc(NC(=O)Nc4ccc(Cl)c(C(F)(F)F)c4)cc3F)o2)cc1	2.31	11
CCN(CC)CCCC(C)Nc1cnc(C(=O)Nc2cccc3ccc(OC)nc23)cn1 (stereo unspecified)	3.17	11.7
N#C/C(=C\c1cc2ccccc2c2ccccc12)c1ccccc1		> 52.3
COC(=O)C12C3C4C1C1C2C3C41NC(=O)c1csc([C@@H](C[C@H](C(C)C)N(C)C(=O)[C@@H](NC(=O)[C@H]2CCCCN2C)C2CC2)OC(C)=O)n1 (stereo partly specified)	0.00818	> 33.3
CS(=O)(=O)c1cc(=O)c2ccccc2s1		32.3
CSc1nc2cc(S(=O)(=O)N3CCCCC3)ccc2s1		> 100
Nc1nc(-c2cccc(Cl)c2)c(-c2ccc3ncccc3n2)s1	> 25	> 25
Cc1ccc2c(c1)CN(C(=O)CCC(=O)OCc1ccccc1)c1ccc(C)cc1CN2C(=O)CCC(=O)OCc1ccccc1		> 100
O=c1[nH]c(=O)n(C2OC(CO)C(O)C(O)C2O)cc1F (stereo unspecified)		> 100
c1cc[c]([Pb]([c]2ccccc2)[c]2ccccc2)cc1	23.4	> 100
CCCCN1CSC(=S)N(Cc2ccccc2)C1		> 100

test system: K-562 leukemia; experiment: inhibition of tumour cell growth, NCI panel, 48 h

SMILES	GI50 [µM]	TGI [µM]
C=C1C(=O)O[C@H]2[C@H]1CC/C(COC(=O)c1cc3ccccc3s1)=C\CC[C@@]1(C)O[C@@H]21	0.813	30.5
Fc1ccc(-c2nn3ncccc3c2-c2ccnc(Nc3ccc4c(c3)OCCO4)n2)cc1	2.68	> 25
CC1(C)N=C(N)N=C(N)N1c1ccc(OCc2ccc(S(=O)(=O)F)c(Cl)c2)c(Cl)c1	0.448	> 100
CO[C@H]1C=C[C@@]23c4cc5c(cc4CO[C@]2(O)CN(C)[C@H]3C1)OCO5		> 100
CC(C)N1CN(C(C(=O)N[C@@H]2C(=O)N3C2SC(C)(C)C3C(=O)O)c2ccccc2)CSC1=S (stereo partly specified)		> 100
COC(=O)c1c(C)[nH]c(/C=C2\N=C(c3ccc[nH]3)C=C2OC)c1C	0.764	> 27.5
COc1cc2c3c(n(CCCCOC(=O)C(Cl)(Cl)Cl)c(=O)c2cc1OC)-c1cc2c(cc1C3=O)OCO2	> 100	> 100
CCOC(=O)c1c(C)nc2c(c1N)/C(=C/c1ccc(OC)cc1)C(=O)N2Cc1ccc(F)cc1	0.207	1.01
CCCCOC(=O)NC(=O)c1cn(C2CCCCC2)c(=O)[nH]c1=O		> 100
COc1cc(NS(=O)(=O)c2ccc(-c3cnc(C4CC4)o3)cc2)ccc1F	0.082	> 100
COc1ccccc1Cn1cc2c(c1-c1ccccc1)CCc1cnoc1-2	0.539	> 100
COc1cc2c(c(OC)c1OC)C(=O)[C@@H]1c3ccc([N+](=O)[O-])cc3C(=O)N(CCCBr)[C@H]21	30.6	> 100
O=C1OC(c2ccco2)=N/C1=C\c1cccc([N+](=O)[O-])c1		> 100
